Each structure is given as a SMILES string.

Data set [1] is described as follows: solubility behaviour in ethanol/water mixtures. It counts as physicochemical. The source says: This effect may be used to initiate precipitation and crystallisation by the addition of water to a solution of (+)- or (−)-mefloquine hydrochloride and also to apply seeding techniques using seeds with a desired morphology such as crystalline form A in cubic or cube-like form. However, other non-solvents may be used to initiate precipitation from solution in a solvent such as hydrocarbons (hexane, heptane, cyclohexane and methylcyclohexane) or ethers (t-butyl methyl ether).

A short description of data set [2]: grinding of form A sample, X-ray powder diffraction. It counts as physicochemical. The note with it: slightly ground to particle size approximately 1 to 10 μm. The method, then: This sample was slightly ground to reduce the particle size to approximately 1 to 10 μm and to avoid this textural effect. The strongest peak intensities are thus reduced and a few of the small peaks disappear.
Powder X-ray Diffraction (PXRD): PXRD is performed on a Philips 1710 powder X-ray diffractometer using CuKα radiation. D-spacings are calculated from the 2θ values using the wavelength of 1.54060 Å. Generally, 2θ values are within an error of ±0.1-0.2°. The experimental error on the d-spacing values is therefore dependent on the peak location.

The conditions of data set [3]: suspensions of mixtures of forms A, B and C, 2° C. to 75° C.

For `Cl.OC(c1cc(C(F)(F)F)nc2c(C(F)(F)F)cccc12)C1CCCCN1` (stereo not drawn) [(+)- or (−)-mefloquine hydrochloride], the “solubility on addition of certain amounts of water to pure ethanol” value in data set [1] (lower water amounts) was “increased”. The “solubility relative to pure ethanol” value in data set [1] (water content of above 50% (v/v)) is reported as “lower than in pure ethanol”. In the case of `Cl.OC(c1cc(C(F)(F)F)nc2c(C(F)(F)F)cccc12)C1CCCCN1` (stereo not shown) [form A], the “crystal form after grinding” value in data set [2] is “still present after grinding”. For `Cl.OC(c1cc(C(F)(F)F)nc2c(C(F)(F)F)cccc12)C1CCCCN1` (stereo not shown) [form B], in data set [3], the “relative stability of crystalline forms” value is “metastable”.

(Values after patent US20070078161A1, “Crystalline forms of (+)- and (-) erythro-mefloquine hydrochloride” (priority 2003, published 2007).)
